Measured values from ChEMBL document CHEMBL1201862, “PubChem BioAssay data set” (2004).
Active and inactive are the calls of the source.

Legend:
[1] = biological target: Complement C1s subcomponent (Homo sapiens, UniProt P09871); experiment: Complement C1s ELISA. [Related pubchem assays: 538, 787 ]; format: functional
cells [2] = format: functional, cell-based
Beta-galactosidase = Beta-galactosidase (Escherichia coli, UniProt Q8VNN2); format: functional
[3] = biological target: T1, Kappa-type opioid receptor (Homo sapiens, UniProt P41145); format: functional
Nonstructural protein 1 = Nonstructural protein 1 (Influenza A virus, UniProt Q194T2); format: functional, Influenza A virus (A/California/07/2009(H1N1))
[4] = biological target: T1, Kappa-type opioid receptor; format: functional; remark: listed apart in the source
cells [5] = format: functional, cell-based; remark: listed apart in the source
[6] = biological target: E3 ubiquitin-protein ligase Mdm2 (Homo sapiens, UniProt Q00987); experiment: enhancers of MDM2-luciferase reporter signal, concentration-effect titration, project on inhibitors of MDM2 ubiquitin ligase, cellular assay, luminescent readout, 384-well plate format (AID 1394); format: functional;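 further: MDM2 E3 inhibitors raise luminescence so EC50 is for signal enhancement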
[7] = Luminescence Cell-Based Dose Retest to Confirm Inhibitors of Cancer Stem Cells. [Related pubchem assays (depositor defined):AID2717, AID2721]; format: functional; details: Homo sapiens
[8] = M. tuberculosis growth inhibition, HTS (AID 449762); format: functional
[9] = biological target: Disintegrin and metalloproteinase domain-containing protein 17 (Homo sapiens, UniProt P78536); experiment: ADAM17 protease inhibitors, dose response, counter-screen for ADAM10 exosite inhibitor project, biochemical, quenched FRET substrate (AID 743253)
[10] = ADAM10 inhibitors, peptide cleavage, dose response, biochemical, QFRET (AID 743254);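 further: ADAM10 enzyme with the DM2 quenched FRET peptide as substrate; EDANS fluorescence gain as the protease cuts the substrate; inhibitor potency against ADAM10 proteolytic activity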
[11] = biological target: RNA-editing ligase 1, mitochondrial (Trypanosoma brucei brucei, UniProt P86926); experiment: TbREL1 ligase inhibitors, dose response, biochemical, fluorescence, Trypanosoma brucei (AID 1117295); format: functional
[12] = inhibitors of Vif binding to APOBEC3G peptide, primary screen, biochemical, TR-FRET, GST-Vif 1-94, biotin-A3G peptide, dose response retest (AID 1117319); format: functional;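 further: TR-FRET signal of purified GST-Vif binding a biotinylated A3G peptide; inhibitors lower the FRET signal by blocking Vif and A3G binding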
cells [13] = details: A549
[14] = HepG2 cell cytotoxicity, dose response, cytotoxicity control, ATP luminescence, cherry-pick, set 6 (AID 1053125); format: functional, cell-based
Estrogen receptor = Estrogen receptor (Homo sapiens, UniProt P03372);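 further: potency for inhibiting coactivator peptide recruitment to the receptor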
Genome polyprotein = Genome polyprotein (Hepatitis C virus, UniProt Q2Q167); experiment: HCV core protein dimerization inhibitors, dose response, biochemical, TR-FRET (AID 2159); design: species or system Hepacivirus hominis;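 further: blocks dimerization of HCV core protein measured by TR-FRET between tagged core106 pairs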
[15] = HEp-2 cell cytotoxicity, dose response, cytotoxicity control for RSV inhibitor project, HTS (AID 2410); format: functional; details: human respiratory syncytial virus
[16] = biological target: Diphosphomevalonate decarboxylase (Streptococcus pneumoniae serotype 2 (strain D39 / NCTC 7466), UniProt Q9FD53); experiment: S. pneumoniae DPM-DC inhibition retest, confirmation, biochemical, cuvette format, coupled NADH fluorescence (AID 1028); format: functional
Caspase-7 = Caspase-7 (Homo sapiens, UniProt P55210); experiment: human caspase-7 inhibitors, dose response, selectivity assay for caspase-6 inhibitor project, biochemical, DEVD-R110 fluorescence, cherry-pick (AID 743295)
[17] = biological target: Induced myeloid leukemia cell differentiation protein Mcl-1 (Homo sapiens, UniProt Q07820); experiment: MCL1-BIM BH3 interaction inhibitors, dose response, biochemical, fluorescence polarization, BIM-BH3 peptide, 1536-well (AID 2217)
Caspase-6 = biological target: T2, Caspase-6 (Homo sapiens, UniProt P55212); experiment: human caspase-6 inhibitors, dose response, biochemical, VEID-R110 fluorescence, cherry-pick (AID 720632)
T2 sequence (P55212 whole entry): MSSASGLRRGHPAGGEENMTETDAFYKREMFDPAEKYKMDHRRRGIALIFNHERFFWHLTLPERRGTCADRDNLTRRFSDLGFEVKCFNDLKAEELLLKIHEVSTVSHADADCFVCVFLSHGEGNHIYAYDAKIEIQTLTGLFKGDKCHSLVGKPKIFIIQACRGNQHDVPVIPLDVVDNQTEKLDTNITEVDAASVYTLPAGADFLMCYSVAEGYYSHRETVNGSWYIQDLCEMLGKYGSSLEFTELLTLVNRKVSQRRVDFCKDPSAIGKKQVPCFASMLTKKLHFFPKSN

Bcl-2-like protein 1 = Bcl-2-like protein 1 (Homo sapiens, UniProt Q07817); experiment: BCL-XL inhibitors, dose response, selectivity assay for MCL1 inhibitor project, biochemical, fluorescence polarization, 1536-well (AID 2218)
Caspase-8 = Caspase-8 (Homo sapiens, UniProt Q14790); experiment: caspase-8 inhibition counter-screen, dose response, selectivity assay for caspase-6 inhibitor project, biochemical, Z-IETD-R110 fluorescence, cherry-picked samples (AID 743294)
[18] = biological target: T3, Methionyl-tRNA synthetase, putative (Trypanosoma brucei brucei, UniProt Q38C91); format: functional, Trypanosoma brucei brucei strain 927/4 GUTat10.1
T3 sequence (Q38C91 whole entry): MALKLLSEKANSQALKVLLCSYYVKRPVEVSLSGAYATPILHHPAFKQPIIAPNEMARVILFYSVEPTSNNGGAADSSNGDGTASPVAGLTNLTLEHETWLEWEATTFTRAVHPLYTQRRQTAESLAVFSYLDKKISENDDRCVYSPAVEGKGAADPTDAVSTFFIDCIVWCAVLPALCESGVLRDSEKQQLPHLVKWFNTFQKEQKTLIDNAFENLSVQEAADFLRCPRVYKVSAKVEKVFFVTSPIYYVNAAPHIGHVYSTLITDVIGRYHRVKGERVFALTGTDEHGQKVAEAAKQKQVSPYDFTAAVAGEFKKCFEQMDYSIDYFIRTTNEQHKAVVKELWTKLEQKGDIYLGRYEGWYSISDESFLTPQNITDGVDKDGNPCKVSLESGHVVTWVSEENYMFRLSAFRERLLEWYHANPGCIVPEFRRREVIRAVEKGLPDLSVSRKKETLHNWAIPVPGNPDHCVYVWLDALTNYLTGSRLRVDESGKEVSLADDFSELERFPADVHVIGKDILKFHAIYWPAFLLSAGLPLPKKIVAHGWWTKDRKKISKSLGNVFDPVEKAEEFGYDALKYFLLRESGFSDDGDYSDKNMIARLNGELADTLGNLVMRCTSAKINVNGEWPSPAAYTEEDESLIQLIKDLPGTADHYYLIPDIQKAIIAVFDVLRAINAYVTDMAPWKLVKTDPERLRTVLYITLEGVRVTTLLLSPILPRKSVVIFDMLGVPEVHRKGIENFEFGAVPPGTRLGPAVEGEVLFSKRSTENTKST

[19] = Counterscreen for inhibitors of Trypanosoma brucei methionyl tRNA synthetase (MetRS): Luminescence-based cell-based high throughput dose response assay to identify compounds that are cytotoxic to Jurkat human T lymphocyte cells.; format: functional
[20] = Late stage counterscreen for inhibitors of Trypanosoma brucei methionyl tRNA synthetase (MetRS): Luminescence-based cell-based high throughput dose response assay to identify compounds that are cytotoxic to Jurkat human T lymphocyte cells.; format: functional
[21] = biological target: T3, Methionyl-tRNA synthetase, putative; format: functional, Trypanosoma brucei brucei strain 927/4 GUTat10.1; remark: listed apart in the source
[22] = Glucagon-like peptide 1 release potency, NCI-H716 cell line, dose-response, half-maximal inhibitory concentration (AID 1117344); format: functional, cell-based
[23] = half-maximal inhibitory concentration for glucagon-like peptide-1 release, STC-1 cell line, dose-response (AID 1117345); format: functional, cell-based
[24] = A Cell-Based Confirmatory Screen for Compounds that Inhibit VEEV, TC-83 (5).; format: functional
[25] = A Cell-Based Confirmatory Screen for Compounds that Inhibit VEEV TC-83 (4).; format: functional
[26] = HIF luciferase reporter inhibitors, dose response, ARNT-TACC3 inhibitor project, cell-based, dry powder samples, luminescence, 2158-07 (AID 720561); format: functional
[27] = Late-stage results from the probe development effort to identify antagonists of arginine vasopressin receptor 1a (AVPR1a): fluorescence-based cell-based dose response AVPR1a inhibition assay.; format: functional
Vasopressin V2 receptor = Vasopressin V2 receptor (Homo sapiens, UniProt P30518); experiment: Late-stage results from the probe development effort to identify antagonists of arginine vasopressin receptor 1a (AVPR1a): fluorescence-based cell-based dose response AVPR2 inhibition counterscreen assay.; format: functional
[28] = Late-stage results from the probe development effort to identify antagonists of arginine vasopressin receptor 1a (AVPR1a): fluorescence-based cell-based dose response OXTR inhibition counterscreen assay.; format: functional
Vasopressin V1b receptor = Vasopressin V1b receptor (Homo sapiens, UniProt P47901); experiment: Late-stage results from the probe development effort to identify antagonists of arginine vasopressin receptor 1a (AVPR1a): fluorescence-based cell-based dose response AVPR1b inhibition counterscreen assay.; format: functional
[29] = A375 melanoma cell viability loss, dose response, counter-screen for MITF inhibitor project, CellTiter-Glo luminescence, dry powder, set 4 (AID 624364); format: functional, cell-based; details: A-375;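 further: A375 melanoma cells are MITF independent so this is a counter screen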
[30] = A375 melanoma cell cytotoxicity, dose response, counter-screen for MITF inhibitor project, CellTiter-Glo luminescence, dry powder, set 2 (AID 624489); format: functional, cell-based; details: A-375;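 further: actives are compounds lowering A375 viability meaning general cytotoxicity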
[31] = HepG2 cell cytotoxicity, dose response, cytotoxicity control, dry powder samples (AID 720568); format: functional, cell-based
[32] = biological target: T4, Low molecular weight phosphotyrosine protein phosphatase (Homo sapiens, UniProt P24666); experiment: LMPTP phosphatase inhibitors, dose response, biochemical, OMFP substrate, fluorescence intensity, set 2 (AID 743307); format: functional
T4 sequence (P24666 whole entry): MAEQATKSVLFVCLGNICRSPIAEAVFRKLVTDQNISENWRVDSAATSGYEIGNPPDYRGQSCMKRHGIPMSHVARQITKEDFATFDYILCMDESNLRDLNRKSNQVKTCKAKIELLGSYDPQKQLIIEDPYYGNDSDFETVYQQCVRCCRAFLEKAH

[33] = biological target: T4, Low molecular weight phosphotyrosine protein phosphatase; experiment: LMPTP phosphatase inhibitors, colorimetric pNPP readout, dose response, orthogonal assay, biochemical, absorbance, pNPP substrate, LMPTP-A isoform, set 2 (AID 743308); format: functional
[34] = HeLa 2N DNA content increase, dose response, cell-based, IC50 (AID 1117349); format: functional
[35] = SNU-C1 cell viability reduction, dose response, CellTiter-Glo luminescence (AID 1117323); format: functional, cell-based
P388/ADR = experiment: cells; format: functional; details: Mus musculus
SN12K1 = experiment: cells; format: functional; details: Homo sapiens
P388 = experiment: cells; format: functional; details: Mus musculus
[36] = HeLa 4N DNA content increase, dose response, cell-based, IC50 (AID 1117351); format: functional

T1 sequence (P41145 whole entry): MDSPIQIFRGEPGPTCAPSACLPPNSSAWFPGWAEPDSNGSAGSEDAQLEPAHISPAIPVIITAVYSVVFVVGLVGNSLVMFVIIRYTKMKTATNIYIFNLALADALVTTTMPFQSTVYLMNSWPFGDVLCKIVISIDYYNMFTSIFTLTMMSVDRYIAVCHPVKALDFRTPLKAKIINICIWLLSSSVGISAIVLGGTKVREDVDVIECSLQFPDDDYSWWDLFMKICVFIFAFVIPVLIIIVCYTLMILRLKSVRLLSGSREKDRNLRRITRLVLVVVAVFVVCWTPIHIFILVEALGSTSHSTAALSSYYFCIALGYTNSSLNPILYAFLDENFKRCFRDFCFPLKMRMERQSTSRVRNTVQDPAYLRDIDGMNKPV
Diphosphomevalonate decarboxylase, sequence (Q9FD53 whole entry): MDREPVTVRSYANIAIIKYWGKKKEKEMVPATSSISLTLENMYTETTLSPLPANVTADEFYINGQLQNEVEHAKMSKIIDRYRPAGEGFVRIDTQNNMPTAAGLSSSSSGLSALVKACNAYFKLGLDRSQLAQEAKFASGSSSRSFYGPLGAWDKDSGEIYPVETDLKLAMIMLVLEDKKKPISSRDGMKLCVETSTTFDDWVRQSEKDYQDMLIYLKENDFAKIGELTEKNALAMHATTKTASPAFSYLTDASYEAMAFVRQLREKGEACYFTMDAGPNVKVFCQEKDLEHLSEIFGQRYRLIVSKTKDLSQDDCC
Beta-galactosidase, sequence (Q8VNN2 whole entry): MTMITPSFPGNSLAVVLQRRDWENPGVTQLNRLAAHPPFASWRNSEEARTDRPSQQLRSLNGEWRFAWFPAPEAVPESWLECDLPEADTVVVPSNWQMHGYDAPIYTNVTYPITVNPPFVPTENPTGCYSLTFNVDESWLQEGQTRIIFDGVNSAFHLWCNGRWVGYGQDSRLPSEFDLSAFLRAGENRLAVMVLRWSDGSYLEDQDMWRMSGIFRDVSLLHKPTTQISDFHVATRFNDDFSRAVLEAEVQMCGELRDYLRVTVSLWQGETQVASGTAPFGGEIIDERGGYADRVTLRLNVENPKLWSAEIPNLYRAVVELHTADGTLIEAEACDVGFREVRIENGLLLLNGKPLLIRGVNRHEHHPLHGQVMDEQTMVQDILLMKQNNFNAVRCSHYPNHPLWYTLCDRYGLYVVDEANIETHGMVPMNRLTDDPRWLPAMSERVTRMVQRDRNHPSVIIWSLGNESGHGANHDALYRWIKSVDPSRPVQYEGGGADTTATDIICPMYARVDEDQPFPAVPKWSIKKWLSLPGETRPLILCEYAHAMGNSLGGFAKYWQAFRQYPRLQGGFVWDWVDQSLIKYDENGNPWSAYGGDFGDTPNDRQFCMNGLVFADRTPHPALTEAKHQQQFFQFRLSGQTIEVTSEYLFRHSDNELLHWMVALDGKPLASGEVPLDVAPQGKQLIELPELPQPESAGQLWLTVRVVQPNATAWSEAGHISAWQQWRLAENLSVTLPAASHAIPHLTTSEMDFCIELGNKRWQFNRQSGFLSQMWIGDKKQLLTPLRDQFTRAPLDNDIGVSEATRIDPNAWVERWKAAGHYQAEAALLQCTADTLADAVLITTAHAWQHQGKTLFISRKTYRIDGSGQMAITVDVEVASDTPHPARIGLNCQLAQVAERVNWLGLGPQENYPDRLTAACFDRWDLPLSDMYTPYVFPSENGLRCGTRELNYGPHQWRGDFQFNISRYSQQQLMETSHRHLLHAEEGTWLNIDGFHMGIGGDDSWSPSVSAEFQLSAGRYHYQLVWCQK
Complement C1s subcomponent, sequence (P09871 16-437 limits assumed): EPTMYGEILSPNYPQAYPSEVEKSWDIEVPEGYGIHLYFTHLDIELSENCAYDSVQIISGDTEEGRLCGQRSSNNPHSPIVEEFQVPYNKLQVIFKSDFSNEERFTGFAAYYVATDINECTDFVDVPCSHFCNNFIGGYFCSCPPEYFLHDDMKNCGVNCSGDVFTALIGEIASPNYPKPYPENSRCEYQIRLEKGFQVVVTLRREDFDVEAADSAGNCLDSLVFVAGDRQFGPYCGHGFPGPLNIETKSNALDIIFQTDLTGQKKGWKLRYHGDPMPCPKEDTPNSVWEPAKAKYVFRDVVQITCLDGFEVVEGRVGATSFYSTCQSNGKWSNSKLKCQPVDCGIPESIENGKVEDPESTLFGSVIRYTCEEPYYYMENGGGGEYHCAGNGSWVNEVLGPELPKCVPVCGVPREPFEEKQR
Complement C1s subcomponent, sequence (P09871 438-688 limits assumed): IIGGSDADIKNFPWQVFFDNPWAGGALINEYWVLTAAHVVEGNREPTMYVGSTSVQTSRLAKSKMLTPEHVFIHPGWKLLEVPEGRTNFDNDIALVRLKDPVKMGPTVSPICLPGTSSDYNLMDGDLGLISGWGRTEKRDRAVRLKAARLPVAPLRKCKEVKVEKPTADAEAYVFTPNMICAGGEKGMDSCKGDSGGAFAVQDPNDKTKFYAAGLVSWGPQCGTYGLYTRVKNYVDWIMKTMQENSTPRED
RNA-editing ligase 1, mitochondrial, sequence (P86926 whole entry): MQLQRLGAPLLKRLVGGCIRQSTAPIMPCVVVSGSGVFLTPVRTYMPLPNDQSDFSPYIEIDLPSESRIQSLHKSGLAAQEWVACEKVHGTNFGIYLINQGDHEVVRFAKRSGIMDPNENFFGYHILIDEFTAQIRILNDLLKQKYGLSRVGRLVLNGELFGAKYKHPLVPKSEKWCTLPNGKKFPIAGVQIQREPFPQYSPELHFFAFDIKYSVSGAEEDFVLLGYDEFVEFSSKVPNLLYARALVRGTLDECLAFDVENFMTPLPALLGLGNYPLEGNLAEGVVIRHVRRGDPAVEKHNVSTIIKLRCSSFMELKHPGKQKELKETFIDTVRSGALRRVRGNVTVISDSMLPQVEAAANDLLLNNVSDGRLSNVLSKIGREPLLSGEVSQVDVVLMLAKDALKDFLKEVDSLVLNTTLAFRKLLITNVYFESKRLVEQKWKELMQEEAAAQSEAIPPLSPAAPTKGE
Disintegrin and metalloproteinase domain-containing protein 17, sequence (P78536 whole entry, the tested form may be a part): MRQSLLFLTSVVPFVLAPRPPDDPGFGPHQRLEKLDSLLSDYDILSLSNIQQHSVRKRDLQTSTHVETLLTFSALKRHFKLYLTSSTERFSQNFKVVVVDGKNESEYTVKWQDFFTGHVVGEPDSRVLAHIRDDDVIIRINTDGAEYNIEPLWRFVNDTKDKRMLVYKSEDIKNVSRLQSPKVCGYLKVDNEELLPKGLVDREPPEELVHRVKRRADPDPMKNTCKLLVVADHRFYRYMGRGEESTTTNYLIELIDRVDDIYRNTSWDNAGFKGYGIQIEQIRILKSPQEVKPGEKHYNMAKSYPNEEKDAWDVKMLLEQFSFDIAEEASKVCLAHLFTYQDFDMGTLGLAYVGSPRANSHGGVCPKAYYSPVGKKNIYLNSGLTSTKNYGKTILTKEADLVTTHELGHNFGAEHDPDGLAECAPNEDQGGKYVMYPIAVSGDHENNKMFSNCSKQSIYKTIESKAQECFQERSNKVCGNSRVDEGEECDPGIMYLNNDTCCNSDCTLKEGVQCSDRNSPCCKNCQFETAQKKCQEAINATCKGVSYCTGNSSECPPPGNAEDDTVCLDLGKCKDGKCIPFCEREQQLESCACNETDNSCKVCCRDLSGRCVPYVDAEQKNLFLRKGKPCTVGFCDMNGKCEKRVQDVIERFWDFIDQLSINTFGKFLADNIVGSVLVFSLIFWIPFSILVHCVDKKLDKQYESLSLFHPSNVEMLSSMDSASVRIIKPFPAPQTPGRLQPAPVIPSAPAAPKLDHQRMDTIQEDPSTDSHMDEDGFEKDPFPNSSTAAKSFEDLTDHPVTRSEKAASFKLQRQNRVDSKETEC
Genome polyprotein, sequence (Q2Q167 whole entry): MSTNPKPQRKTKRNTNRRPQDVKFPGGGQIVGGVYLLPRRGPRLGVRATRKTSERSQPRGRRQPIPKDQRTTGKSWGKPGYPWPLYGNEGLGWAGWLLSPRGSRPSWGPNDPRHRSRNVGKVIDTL
Estrogen receptor, sequence (P03372 whole entry): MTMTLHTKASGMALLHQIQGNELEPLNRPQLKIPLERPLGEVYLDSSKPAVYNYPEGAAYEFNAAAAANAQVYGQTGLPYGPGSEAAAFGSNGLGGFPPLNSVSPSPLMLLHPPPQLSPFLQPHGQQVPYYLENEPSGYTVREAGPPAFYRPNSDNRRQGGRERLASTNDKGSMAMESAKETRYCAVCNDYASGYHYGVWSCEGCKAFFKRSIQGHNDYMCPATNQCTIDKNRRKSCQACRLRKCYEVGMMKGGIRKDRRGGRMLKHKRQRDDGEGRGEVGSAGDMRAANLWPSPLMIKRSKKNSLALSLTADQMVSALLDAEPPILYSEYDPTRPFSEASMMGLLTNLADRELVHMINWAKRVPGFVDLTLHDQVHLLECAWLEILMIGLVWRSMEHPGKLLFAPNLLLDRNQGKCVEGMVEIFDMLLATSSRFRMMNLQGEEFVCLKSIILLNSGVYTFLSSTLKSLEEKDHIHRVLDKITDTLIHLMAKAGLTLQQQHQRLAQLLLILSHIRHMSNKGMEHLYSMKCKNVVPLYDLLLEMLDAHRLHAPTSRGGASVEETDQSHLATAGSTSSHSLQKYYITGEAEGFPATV
Bcl-2-like protein 1, sequence (Q07817 whole entry): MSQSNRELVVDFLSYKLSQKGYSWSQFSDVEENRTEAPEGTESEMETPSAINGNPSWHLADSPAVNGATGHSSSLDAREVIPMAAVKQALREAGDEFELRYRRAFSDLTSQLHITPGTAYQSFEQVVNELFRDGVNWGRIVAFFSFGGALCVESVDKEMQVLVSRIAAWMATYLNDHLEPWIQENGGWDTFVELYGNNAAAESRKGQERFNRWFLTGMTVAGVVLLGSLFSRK
Caspase-7, sequence (P55210 24-198 limits assumed): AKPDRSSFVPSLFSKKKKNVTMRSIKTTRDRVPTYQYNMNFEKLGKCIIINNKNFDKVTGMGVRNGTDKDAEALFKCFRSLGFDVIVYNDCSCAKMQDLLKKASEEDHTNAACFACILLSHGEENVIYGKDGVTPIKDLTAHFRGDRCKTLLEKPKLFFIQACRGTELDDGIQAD
Caspase-7, sequence (P55210 207-303 limits assumed): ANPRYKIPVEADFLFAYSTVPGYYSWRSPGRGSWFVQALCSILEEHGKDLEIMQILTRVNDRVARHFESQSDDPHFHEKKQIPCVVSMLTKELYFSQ

O=c1c(-c2ccco2)[n+]([O-])c2ccccc2n1OCc1ccccn1
IC50 [1]: > 50 µM (not active)

O=C(CSC1=NNC(c2ccccn2)S1)Nc1ccc(C(F)(F)F)cc1 (stereo not given)
EC50 (cells [2]): 15.6 µM (active)
EC50 (Beta-galactosidase): > 31.5 µM (inactive)
IC50 [3]: > 32 µM
IC50 (Nonstructural protein 1): 7.8 µM (active)
IC50 [4]: > 31.5 µM (inactive)
EC50 (cells [5]): > 350 µM (not active)
EC50 [6]: 43.2 µM (not active)
AC50 [7]: 3.51 µM (active)

CC1(c2ccc(Cl)c(Cl)c2)N=C(S)N2C1N=C(S)N2c1ccccc1 (stereo not given)
IC50 [8]: > 100 µM (active)

Cc1cc(C)cc(NS(=O)(=O)c2ccc(Oc3ncc(C(F)(F)F)cc3Cl)cc2)c1
IC50 [9]: > 69.5 µM (inactive)
IC50 [10]: 12 µM (inactive)
AC50 [7]: 2.09 µM (active)

Clc1ccc(CN=C(Nc2ccccc2)NC2CCCCC2)cc1
IC50 [11]: > 96.6 µM (inactive)

Cc1noc(C)c1C(=O)N1CCc2ccccc2C1
IC50 [12]: > 100 µM (active)

O=C(NNc1c2ccccc2nc2ccccc12)c1ccc(O)cc1
AC50 (cells [13]): > 52 µM (inactive)
AC50 [14]: > 52 µM (inactive)

CCn1c(SCC(=O)Nc2ccc3c(c2)c2ccccc2n3CC)nnc1-c1ccco1
IC50 (Estrogen receptor): > 50 µM (not active)
IC50 (Genome polyprotein): > 49.8 µM (not active)
CC50 [15]: 48.9 µM (active)

CCN(CC)C(=O)c1cccc(-n2sc3ccccc3c2=O)c1
IC50 [16]: 16.7 µM (active)

CCCCN(C(=O)c1cccc(-n2cccc2)c1)c1c(N)n(CCC)c(=O)[nH]c1=O
AC50 (Caspase-7): 51.2 µM (active)
IC50 [17]: > 12.1 µM (not active)
AC50 (Caspase-6): 1.93 µM (active)
IC50 (Bcl-2-like protein 1): > 109 µM (not active)
AC50 (Caspase-8): > 70 µM (inactive)

CN(Cc1cc(Cl)cc(Cl)c1)[C@H]1C[C@H]2c3[nH]c4ccccc4c3CCN2C(=O)[C@H]1CO
IC50 [18]: 1.33 µM (active)
IC50 [19]: 80.2 µM (inactive)
IC50 [20]: 31.7 µM (inactive)
IC50 [21]: 1.64 µM (active)

CCCCCCCC/C=C\CCCCCCCCN
IC50 [22]: 14.8 µM (inactive)
IC50 [23]: > 40 µM (inactive)

CCN1CCN(Cc2nc3ccc([N+](=O)[O-])cc3c(=O)n2-c2cccc(F)c2)CC1
IC50 [24]: 0.45 µM (active)
IC50 [25]: 0.31 µM (active)

Cc1nnc(NC(=O)c2ccc(S(=O)(=O)N3CCCCC3)cc2)o1
AC50 [26]: > 100 µM (inactive)

O=C(C1CCN(c2ccc(C(F)(F)F)cn2)CC1)N(CC1CC1)c1ccc(Cl)cc1
IC50 [27]: 0.123 µM (active)
IC50 (Vasopressin V2 receptor): 19.3 µM (inactive)
IC50 [28]: 12.6 µM (inactive)
IC50 (Vasopressin V1b receptor): 31.7 µM (inactive)

O=C1C(Nc2ccccc2)=C(N2CCN(c3ccccc3)CC2)C(=O)c2ccccc21
AC50 [29]: > 70 µM (inactive)
AC50 [30]: > 70 µM (inactive)

O=C1CCN(Cc2ccccc2)c2cc3ccccc3cc21
AC50 [31]: > 30 µM (inactive)

c1ccc(-c2nc(N3CCSCC3)c3ccccc3n2)cc1
IC50 [32]: > 80 µM (inactive)
IC50 [33]: > 80 µM (inactive)

CN(Cc1cnc2nc(N)nc(N)c2n1)c1ccc(C(=O)N[C@@H](CCC(=O)O)C(=O)O)cc1 [METHOTREXATE]
IC50 [34]: > 10 µM (inactive)
IC50 [35]: > 20 µM (inactive)
GI50 (P388/ADR): 0.025 µM (active)
GI50 (SN12K1): 0.025 µM (active)
GI50 (P388): 0.025 µM (active)
IC50 [36]: > 10 µM (inactive)
